# Reference: article PMC8232895 (Drug Design, Development and Therapy, 2021)
# Where two headings read alike, the source gives them in different places.
# Key:
# [1] = DPPH free radical scavenging assay; conditions: for DPPH radical % Inhibition (Mean±SEM): n 3; for IC50: read-out: DPPH scavenging IC50
# [2] = ABTS free radical scavenging assay; conditions: for ABTS radical % Inhibition (Mean±SEM): n 3; for IC50: read-out: ABTS scavenging IC50
# [3] = biological target: T1, butyrylcholinesterase (BChE) (Equus caballus, UniProt P81908); conditions: n 3
# [4] = biological target: T1, butyrylcholinesterase (BChE); assay: biochemical; conditions: read-out: BChE % Inhibition (Mean±SEM)
# T1 sequence (P81908 whole entry): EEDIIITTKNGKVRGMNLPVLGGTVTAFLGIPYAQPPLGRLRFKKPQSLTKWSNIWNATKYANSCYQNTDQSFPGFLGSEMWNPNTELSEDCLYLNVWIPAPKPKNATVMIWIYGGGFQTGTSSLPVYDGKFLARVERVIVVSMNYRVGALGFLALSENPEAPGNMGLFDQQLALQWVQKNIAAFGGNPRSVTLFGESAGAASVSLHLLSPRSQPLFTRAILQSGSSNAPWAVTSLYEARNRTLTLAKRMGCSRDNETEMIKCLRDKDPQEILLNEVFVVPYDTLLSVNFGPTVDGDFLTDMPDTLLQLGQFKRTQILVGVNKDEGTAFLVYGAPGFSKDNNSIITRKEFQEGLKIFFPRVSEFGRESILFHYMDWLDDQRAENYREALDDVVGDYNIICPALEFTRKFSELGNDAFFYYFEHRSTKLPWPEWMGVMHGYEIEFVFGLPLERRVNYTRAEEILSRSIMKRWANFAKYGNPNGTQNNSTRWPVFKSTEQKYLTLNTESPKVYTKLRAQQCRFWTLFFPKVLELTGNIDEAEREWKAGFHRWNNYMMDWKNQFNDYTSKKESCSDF
Compound,DPPH radical % Inhibition (Mean±SEM) ([1]; 15.62 µg/mL),DPPH radical % Inhibition (Mean±SEM) ([1]; 31.25 µg/mL),DPPH radical % Inhibition (Mean±SEM) ([1]; 62.5 µg/mL),DPPH radical % Inhibition (Mean±SEM) ([1]; 125 µg/mL),DPPH radical % Inhibition (Mean±SEM) ([1]; 250 µg/mL),DPPH radical % Inhibition (Mean±SEM) ([1]; 500 µg/mL),DPPH radical % Inhibition (Mean±SEM) ([1]; 1000 µg/mL),IC50 [1],ABTS scavenging IC50 [2],ABTS radical % Inhibition (Mean±SEM) ([2]; 15.62 µg/mL),ABTS radical % Inhibition (Mean±SEM) ([2]; 31.25 µg/mL),ABTS radical % Inhibition (Mean±SEM) ([2]; 62.5 µg/mL),ABTS radical % Inhibition (Mean±SEM) ([2]; 125 µg/mL),ABTS radical % Inhibition (Mean±SEM) ([2]; 250 µg/mL),ABTS radical % Inhibition (Mean±SEM) ([2]; 500 µg/mL),"ABTS radical % Inhibition (Mean±SEM) ([2]; 1,000 µg/mL)",IC50 [2],also measured
({3-[(4-Methoxy-2-Nitrophenyl) Carbamoyl] Propanoyl} Zincio 3-[(2-Methoxy-5-Nitrophenyl) Carbamoyl] Propanoate Pyridine [AAZ8],69.87±0.59%,73.47±0.26 %,75.68±0.97%,77.85±0.39 %,79.54±0.63 %,81.69±0.45 %,83.97±0.12%,29 µM,29 µg/mL,65.39±0.89%,70.28±0.36 %,73.62±0.29%,77.45±0.87 %,78.36±0.58%,79.27±0.64 %,81.35±0.35%,41 µM,"BChE % Inhibition (Mean±SEM) ([3]; 15.62 µg/mL): 77.93±0.78 %; BChE % Inhibition (Mean±SEM) ([3]; 31.25 µg/mL): 79.31±0.67%; BChE % Inhibition (Mean±SEM) ([3]; 62.5 µg/mL): 80.72±0.58%; BChE % Inhibition (Mean±SEM) ([3]; 125 µg/mL): 81.64±1.04 %; BChE % Inhibition (Mean±SEM) ([3]; 250 µg/mL): 83.54±0.74%; BChE % Inhibition (Mean±SEM) ([3]; 500 µg/mL): 84.13±0.45 %; BChE % Inhibition (Mean±SEM) ([3]; 1,000 µg/mL): 85.17±0.87 %"
COc1ccc2c3c1O[C@H]1C[C@@H](O)C=C[C@@]31CCN(C)C2 [Galantamine],,,,,,,,,,,,,,,,,,inhibition at 15.62 µg/mL [4]: 82.76 ± 0.44%
"O=C1O[C@H]([C@@H](O)CO)C(O)=C1O [Ascorbic Acid, reference compound]",77.28±0.79%,82.74±0.23%,84.44±0.15%,87.25±0.48%,91.54±0.37%,93.65±0.54%,95.63±0.12%,0.173 µM,<0.1 µg/mL,77.65±0.32%,79.29±0.91%,81.75±0.85%,84.68±0.56%,85.34±0.47%,88.25±0.87%,92.36±0.65%,0.129 µM,DPPH scavenging IC50 [1]: <0.1 µg/mL
